Reference: patent US20210315893A1 (Galapagos NV, priority 2017, published 2021)

How the values were obtained:
[1] = biological target: T1, human GPCR sphingosine 1-phosphate receptor 2 (Homo sapiens, UniProt O95136); experiment: S1PR2 antagonist Ca2+ flux assay; format: cell-based; conditions: antagonist mode, CHO-S1PR2 cells, S1P at EC80, Ca2+ fluorescence; read-out: S1P2 EC50 (nM), S1P2 antagonist EC50
T1 construct: host or cells: CHO
Outline: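 CHO cells stably expressing human S1PR2, serum-starved 1 h, Fluo8-loaded; compound-evoked Ca2+ fluorescence read 3 min (agonist mode), then after 15 min S1P at EC80 added and read 3 min (antagonist mode). Max/baseline fluorescence ratios normalised to vehicle and S1P EC100 or EC50 controls; EC50 derived.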

[2] = biological target: T2, S1PR2 (Homo sapiens, UniProt O95136); experiment: S1PR2 binding assay (competition with radioactively labeled S1P, SpA); conditions: membranes from stable cell line over expressing S1PR2, SpA beads; read-out: S1P2 EC50 (nM), S1PR2 binding EC50
T2 construct: expressed in transfected cells
Outline: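 Competition with [3H]S1P for membranes from a stable S1PR2-overexpressing cell line, 20 μg/well, captured on PVT-WGA SPA beads, in 20 mM Tris pH 7.5, 10 mM MgCl2, 100 mM NaCl, 0.4% fatty-acid-free BSA, 1 mM Na3VO4. 2 h at room temperature, then centrifugation and scintillation counting.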

[3] = system: HFL-1 cells; experiment: IL-8 production assay (S1P induced IL-8); format: cell-based; conditions: Homo sapiens, HFL1; S1P (1 μM) induced IL-8 in HFL-1 cells, starvation medium without HSA; read-out: IL8 EC50
Protocol: This assay is designed to test inhibitory activity of compounds on S1P induced IL-8 on HFL-1 cells, ahuman fetal lung fibroblast cell line.
Human Fetal Lung cells (HFL-1) are seeded in 96 well plates in growth medium (F12K+10% heat inactivated FBS+l1% Pen/strep). After overnight incubation at 37° C., […] cells are refreshed with starvation medium without HSA (F12K+1% FBS+1% Pen/strep). On day three, compounds are added (10 point serial dilution, 30 μM highest concentration, 1/3 dilution, 0.3% DMSO final) and plates are incubated for one h at 37° C., 5% CO2. Subsequently S1P at 1 μM final concentration is added and plates are incubated for 16 to24 h at 37° C., […] after which the supermatant was collected. IL-8 levels in the supernatant are determined with the IL-8 ELISA of R&D systems.

[4] = system: HFL-1 cells; experiment: IL8 assay in the presence of Human Serum Albumin; conditions: HFL1, read-out: HSA IL8 EC50
Protocol: To evaluate the influence of plasma protein binding of S1P as well as compound, the S1P induced IL-8 levelswereevaluatedin presence of Human Serum Albumin (HSA, equivalent to 40% human serum).
Human Fetal Lung cells (HFL-1) are seeded in 96 well plates in growth medium (F12K+10% heat inactivated FBS+1% Pen/strep). […] On day three, compounds are added (10 point serial dilution, 30 μM highest concentration, 1/3 dilution, 0.3% DMSO final) and plates are incubated for 1 h at 37° C., 5% CO2. Subsequently S1P at 5 μM final concentration is added and plates are incubated for 16 to 24 h at 37° C., 5% COafter which the supernatant was collected. IL-8 levels in the supernatant are determined with the IL-8 ELISA of R&D systems.

T2 sequence (O95136 whole entry): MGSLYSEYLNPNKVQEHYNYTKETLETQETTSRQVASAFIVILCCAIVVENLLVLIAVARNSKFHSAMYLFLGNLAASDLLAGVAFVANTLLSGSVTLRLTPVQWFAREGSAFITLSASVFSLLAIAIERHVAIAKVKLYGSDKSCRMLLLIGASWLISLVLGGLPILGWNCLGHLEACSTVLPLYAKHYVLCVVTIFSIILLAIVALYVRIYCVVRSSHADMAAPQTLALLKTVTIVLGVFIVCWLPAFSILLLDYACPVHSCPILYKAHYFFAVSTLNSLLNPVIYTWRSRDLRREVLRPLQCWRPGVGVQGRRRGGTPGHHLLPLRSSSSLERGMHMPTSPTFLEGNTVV
T1 sequence (O95136 whole entry): as above

SMILES | EC50 [1] | EC50 [2] | EC50 [3] | EC50 [4]
N#Cc1cc2[nH]c(Cc3nn(C(CN4CCC4)C(=O)O)c(=O)c4ccccc34)nc2cc1OCC(F)F (stereo not shown) [Compound 75, 3-(azetidin-1-yl)-2-[4-[[6-cyano-5-(2,2-difluoroethoxy)-1H-benzimidazol-2-yl]methyl]-1-oxo-phthalazin-2-yl]propanoic acid] | 3850 nM | 2920 nM | 938 nM | 1300 nM
O=C(O)Cc1nn(Cc2nc3cc(OCC(F)F)c(Cl)cc3[nH]2)c2ccccc2c1=O [Compound 78, {1-[6-Chloro-5-(2,2-difluoro-ethoxy)-1H-benzoimidazol-2-ylmethyl]-4-oxo-1,4-dihydro-cinnolin-3-yl}-acetic acid] | 6.16 nM | 55.9 nM | 4.65 nM | 41.5 nM
CCC(C(=O)O)c1nn(Cc2cn3cc(OCC4CC4)c(C(F)(F)F)cc3n2)c2ccccc2c1=O (stereo not shown) [Compound 103, 2-[1-[[6-(cyclopropylmethoxy)-7-(trifluoromethyl)imidazo[1,2-a]pyridin-2-yl]methyl]-4-oxo-cinnolin-3-yl]butanoic acid] | 4.59 nM | 223 nM | 18.9 nM | 108 nM
O=C(O)c1nn(Cc2nc3cc(OCC4CC4)c(C(F)(F)F)cc3[nH]2)c2ccccc2c1=O [Compound 104, (1-[[5-(cyclopropylmethoxy)-6-(trifluoromethyl)-1H-benzimidazol-2-yl]methyl]-4-oxocinnoline-3-carboxylic acid)] | 3.02 nM | 22.4 nM | 4.55 nM | 27 nM
O=C(O)Cc1nn(Cc2cn3cc(OCC4CC4)c(Cl)cc3n2)c2c(c1=O)CCCC2 [Compound 105, 2-[1-[[7-chloro-6-(cyclopropylmethoxy)imidazo[1,2-a]pyridin-2-yl]methyl]-4-oxo-5,6,7,8-tetrahydrocinnolin-3-yl]acetic acid] | 3.02 nM | 35.3 nM | 10.6 nM | 110 nM
O=C(O)Cc1nn(Cc2nc3cc(OCC4CC4)c(Br)cc3[nH]2)c2ccccc2c1=O [Compound 109, 2-[1-[[6-bromo-5-(cyclopropylmethoxy)-1H-benzimidazol-2-yl]methyl]-4-oxo-cinnolin-3-yl]acetic acid] | 2.32 nM | 3.84 nM | 0.137 nM | 2.03 nM
CCOc1cc2[nH]c(Cc3nn(CC(=O)O)c(=O)c4c3CCCC4)nc2cc1Cl [Compound 121, 2-[4-[(5-chloro-6-ethoxy-1H-benzimidazol-2-yl)methyl]-1-oxo-5,6,7,8-tetrahydrophthalazin-2-yl]acetic acid] | 6.23 nM | 84.8 nM | 6.35 nM | 50.8 nM
CC1(COc2cc3nc(Cc4nn(CC(=O)O)c(=O)c5ccccc45)[nH]c3cc2Cl)CC1 [Compound 131, 2-[4-[[5-chloro-6-[(1-methylcyclopropyl)methoxy]-1H-benzimidazol-2-yl]methyl]-1-oxo-phthalazin-2-yl]acetic acid] | 13.2 nM | 197 nM | 12 nM | 267 nM
CC(C)(C)COc1cc2nc(Cc3nn(CC(=O)O)c(=O)c4ccccc34)[nH]c2cc1Cl [Compound 132] | 26.4 nM | 649 nM | 97.3 nM | 800 nM
N#CC1(COc2cc3nc(Cc4nn(CC(=O)O)c(=O)c5ccccc45)[nH]c3cc2Cl)CC1 [Compound 133, 2-[4-[[5-chloro-6-[(1-cyanocyclopropyl)methoxy]-1H-benzimidazol-2-yl]methyl]-1-oxo-phthalazin-2-yl]acetic acid] | 14.8 nM | 263 nM | 33.3 nM | 267 nM

Continued, values first:

EC50 [1] | EC50 [2] | EC50 [3] | EC50 [4] | SMILES
119 nM | 159 nM | 5.39 nM | 28 nM | N#Cc1cc2nc(Cc3nn(CC(=O)O)c(=O)c4ccccc34)[nH]c2cc1OCC(F)F [Compound 139]
13.8 nM | 15.2 nM | 21.6 nM | 179 nM | O=C(Cn1nc(Cn2cc3cc(OCC4CC4)c(Cl)cc3n2)c2ccccc2c1=O)N[C@H]1CCC[C@@H]1O [Compound 143, 2-[4-[[6-chloro-5-(cyclopropylmethoxy)indazol-2-yl]methyl]-1-oxo-phthalazin-2-yl]-N-[(1S,2S)-2-hydroxycyclopentyl]acetamide]
13.6 nM | 34.7 nM | 7.11 nM | 43.7 nM | O=C(Cn1nc(Cc2nc3cc(Cl)c(OCC(F)F)cc3[nH]2)c2ccccc2c1=O)N1CCOCC1 [Compound 151, 4-[[5-chloro-6-(2,2-difluoroethoxy)-1H-benzimidazol-2-yl]methyl]-2-(2-morpholino-2-oxo-ethyl)phthalazin-1-one]
14.7 nM | 229 nM | 49.5 nM | 230 nM | CC(C(=O)N1CCOCC1)n1nc(Cc2nc3cc(OCC4CC4)c(Cl)cc3[nH]2)c2ccccc2c1=O (stereo not shown) [Compound 155, 4-(6-Chloro-5-cyclopropylmethoxy-1H-benzoimidazol-2-ylmethyl)-2-(1-methyl-2-morpholin-4-yl-2-oxo-ethyl)-2H-phthalazin-1-one]
106 nM | 618 nM | 780 nM | 1220 nM | CCOc1cc2nc(Cc3nn(CC(=O)N4CCOCC4)c(=O)c4ccccc34)[nH]c2cc1F [Compound 157, 4-[(5-ethoxy-6-fluoro-1H-benzimidazol-2-yl)methyl]-2-(2-morpholino-2-oxo-ethyl)phthalazin-1-one]
3.98 nM | 18.6 nM | 1.5 nM | 11 nM | N#Cc1cc2[nH]c(Cc3nn(CC(=O)N4CCOCC4)c(=O)c4ccccc34)nc2cc1OCC1CC1 [Compound 158, 6-(cyclopropylmethoxy)-2-[[3-(2-morpholino-2-oxo-ethyl)-4-oxo-phthalazin-1-yl]methyl]-3H-benzimidazole-5-carbonitrile]
9.07 nM | 75.1 nM | 4.44 nM | 8.27 nM | C[C@@H]1CN(C(=O)Cn2nc(Cc3nc4cc(Cl)c(OCC5(C#N)CC5)cc4[nH]3)c3ccccc3c2=O)C[C@H](C)O1 [Compound 162, 1-[[6-chloro-2-[[3-[2-[(2S,6R)-2,6-dimethylmorpholin-4-yl]-2-oxo-ethyl]-4-oxo-phthalazin-1-yl]methyl]-3H-benzimidazol-5-yl]oxymethyl]cyclopropanecarbonitrile]
11.6 nM | 109 nM | 12.6 nM | 107 nM | CC1(COc2cc3[nH]c(Cc4nn(CC(=O)N5CCOCC5)c(=O)c5ccccc45)nc3cc2Cl)CC1 [Compound 163, 4-[[5-chloro-6-[(1-methylcyclopropyl)methoxy]-1H-benzimidazol-2-yl]methyl]-2-(2-morpholino-2-oxo-ethyl)phthalazin-1-one]
9.34 nM | 22.4 nM | 1.41 nM | 3.3 nM | O=C(Cn1nc(Cc2nc3cc(Cl)c(OCC4CC4)cc3[nH]2)c2ccccc2c1=O)N1CCOCC1 [Compound 166, 4-[[5-chloro-6-(cyclopropylmethoxy)-1H-benzimidazol-2-yl]methyl]-2-(2-morpholino-2-oxo-ethyl)phthalazin-1-one]
21.1 nM | 93.9 nM | 28.3 nM | 67 nM | CN(CC1CCCO1)C(=O)Cn1nc(Cc2nc3cc(OCC(F)F)c(C#N)cc3[nH]2)c2ccccc2c1=O (stereo not shown) [Compound 180, 2-[4-[[6-cyano-5-(2,2-difluoroethoxy)-1H-benzimidazol-2-yl)methyl]-1-oxo-phthalazin-2-yl]-N-methyl-N-(THF-2-ylmethyl)acetamide]
95.8 nM | 297 nM | 544 nM | 906 nM | N#CCCN(C(=O)Cn1nc(Cc2nc3cc(OCC(F)F)c(C#N)cc3[nH]2)c2ccccc2c1=O)C1CC1 [Compound 181, 2-[4-[[6-cyano-5-(2,2-difluoroethoxy)-1H-benzimidazol-2-yl]methyl]-1-oxo-phthalazin-2-yl]-N-(2-cyanoethyl)-N-cyclopropyl-acetamide]
17.3 nM | 53.4 nM | 9.66 nM | 54.7 nM | COC(C)(C)CNC(=O)Cn1nc(Cc2nc3cc(OCC(F)F)c(C#N)cc3[nH]2)c2ccccc2c1=O [Compound 182, 2-[4-[[6-cyano-5-(2,2-difluoroethoxy)-1H-benzimidazol-2-yl]methyl]-1-oxo-phthalazin-2-yl]-N-(2-methoxy-2-methyl-propyl)acetamide]
